Read-outs that look alike come from different tables or passages of the source.
Experiments:
in vivo = experiment: in vivo; design: species or system mice (CF1 S female); details: sc, mouse
[1] = tested on: pain induced by phenylquinone (writhing syndrome); experiment: Phenylquinone writhing test (PQW), analgesic activity in mice; format: in vivo, mice (fasted female white mice)
From the text: Exp. Biol. Med. 95, 729 (1957). […] Rev. 11 115-145 (1947).

[2] = tested on: morphine-induced Straub tail in mice; experiment: Narcotic antagonist (anti-Straub tail) test in mice; format: in vivo; details: ip, 10 min; mouse, compound intraperitoneal, 10 min later 53 mg/kg morphine sulfate s.c.; compounds of the invention as hydrochloride salt; 135 mg/kg or higher = inactive; read-out: Antistraub Tail ED50 (Mouse ED50 Values)
[3] = tested on: Straub tail induced by morphine sulfate; experiment: Modified Straub Tail Antagonism test; format: in vivo, mice; details: Mus musculus, sc; test drug subcutaneous in 1% methyl cellulose with 1.25% Tween 80; morphine sulfate 35 mg/kg i.p. 5 min later; observed after 15 min for 5 min; read-out: ED 50 (modified Straub Tail Antagonism)
Procedure: The Straub Tail Antagonism test was modified by giving test drugs (in 1% methyl cellulose with 1.25% "Tween 80") subcutaneously, followed by intraperitoneal injection of morphine sulfate (at 35 mg/kg) 5 minutes after the test drug. […] ED 50's were calculated as above with a 95% confidence limit as described by Litchfield, J. Pharmacol. Exp. Ther. 96, 99 (1949).

[4] = subcutaneous, within 25 minutes after dosing, compounds of the invention as hydrochloride salt, 135 mg/kg or higher = inactive, read-out: Straub Tail ED50 (Mouse ED50 Values)
[5] = 0.5 h, mouse, oral, observed for 10 min commencing 30 min after administration, compounds of the invention as hydrochloride salt, 135 mg/kg or higher = inactive, read-out: PQW ED50 (Mouse ED50 Values, POW)

SMILES	ED50 at 25 min (in vivo; [4]) [mg/kg]	ED50 [1, 5] [mg/kg]	ED50 [2] [mg/kg]	also measured
COc1ccc2c3c1OC1C(F)C=CC4C(C2)N(C)CCC341 (stereo not drawn) [Ayer 3,137,701, reference compound]	63			
COc1ccc2c3c1O[C@H]1[C@@H](O)C=C[C@H]4[C@@H](C2)N(C)CC[C@@]341 [Codeine PO4, reference compound]	202			
COc1ccc2c3c1O[C@H]1C(F)=CC[C@H]4[C@@H](C2)N(C)CC[C@]314.Cl [Compound 2, 17-Methyl-6,7-didehydro-4,5-epoxy-6-fluoro-3-methoxymorphinan Hydrochloride]		8.5		
COc1ccc2c3c1O[C@H]1C(F)(F)CC[C@H]4[C@@H](C2)N(C)CC[C@@]341.Cl [Compound 4, 17-Methyl-4,5-epoxy-6,6-difluoro-3-methoxymorphinan Hydrochloride]	10		> 81	
CN1CC[C@]23c4c5ccc(O)c4OC2C(F)=CC[C@H]3[C@H]1C5.Cl (stereo partly drawn) [Compound 6, 17-Methyl-6,7-didehydro-4,5-epoxy-6-fluoro-3-hydroxymorphinan Hydrochloride]	17	8		
COc1ccc2c3c1OC1C(F)(F)CC[C@H]4[C@@H](C2)N(CC2CCC2)CC[C@]314.Cl (stereo partly drawn) [Compound 10, 17-Cyclobutylmethyl-4,5-epoxy-6,6-difluoro-3-methoxymorphinan Hydrochloride]	> 81			
COc1ccc2c3c1OC1C(F)(F)CC[C@H]4[C@@H](C2)N(CC2CC2)CC[C@]314 (stereo partly drawn) [Compound 15, 17-Cyclopropylmethyl-4,5-epoxy-6,6-difluoro-3-methoxymorphinan]	> 54			
COc1ccc2c3c1OC1C(F)=CC[C@H]4[C@@H](C2)N(CC2CC2)CC[C@]314 (stereo partly drawn) [Compound 16, 17-Cyclopropylmethyl-6,7-didehydro-4,5-epoxy-6-fluoro-3-methoxymorphinan]	> 135			
Oc1ccc2c3c1OC1C(F)(F)CC[C@H]4[C@@H](C2)N(CC2CC2)CC[C@]314 (stereo partly drawn) [Compound 17, 17-Cyclopropylmethyl-4,5-epoxy-6,6-difluoro-3-hydroxymorphinan]	> 54		0.003	ED50 ([1]; 0.5 h, mouse, oral, * peak time value (maximum activity within 30 min of administration), compounds of the invention as hydrochloride salt, read-out: PQW ED50 (Mouse ED50 Values, POW), peak time value): 2.6 mg/kg; ED50 [3]: 0.0033 mg/kg
Cl.Oc1ccc2c3c1OC1C(F)=CC[C@H]4[C@@H](C2)N(CC2CC2)CC[C@]314 (stereo partly drawn) [Compound 18, 17-Cyclopropylmethyl-6,7-didehydro-4,5-epoxy-6-fluoro-3-hydroxymorphinan Hydrochloride]	> 135	7.2	0.18	
COc1ccc2c3c1O[C@H]1C(F)(F)CC[C@@]4(O)[C@@H](C2)N(CC2CCC2)CC[C@]314.Cl [Compound 26, 17-Cyclobutylmethyl-4,5α-epoxy-6,6-difluoro-14β-hydroxy-3-methoxymorphinan Hydrochloride]	> 135			
CC(=O)Oc1ccc2c3c1O[C@H]1C(F)=CC[C@H]4[C@@H](C2)N(CC2CC2)CC[C@]314 [Compound 29, 17-Cyclopropylmethyl-6,7-didehydro-4,5α-epoxy-6-fluoro-3-acetoxymorphinan]	> 18	1.3	0.0022	ED50 ([1]; Mus musculus, sc, 0.25 h, subcutaneous, fifteen minutes after injection, read-out: ED50 (analgesic, subcutaneous injection)): 0.0016 mg/kg
CC(=O)Oc1ccc2c3c1O[C@H]1C(F)(F)CC[C@H]4[C@@H](C2)N(CC2CC2)CC[C@@]341 [Compound 30, 17-Cyclopropylmethyl-4,5α-epoxy-6,6-difluoro-3-acetoxymorphinan]	> 18	2.2	0.0031	
CN1CC[C@]23c4c5ccc(O)c4O[C@H]2[C@@H](O)C=C[C@H]3[C@H]1C5 [Morphine SO4, reference compound]				ED50 at 25 min (in vivo; 135 mg/kg): 48 mg/kg
CC(C)=CCN1CCC2(C)c3cc(O)ccc3CC1C2C (stereo not drawn) [Pentazocine, reference compound]				ED50 [3]: 1.9 mg/kg

Reference: US4241065A, “Fluoro analogs of hydrocodone and oxycodone useful as analgesics, narcotic antagonists or both” (priority 1979, dated 1980)
